Key:
[1] = tested on: Salmonella enterica serovar typhimurium TA100; assay: Antimutagenicity assay (Salmonella/microsome), strain TA100 (co-, pre- and posttreatment); format: cell-based
[2] = tested on: Salmonella enterica serovar typhimurium TA102; assay: Antimutagenicity assay (Salmonella/microsome), strain TA102; format: cell-based; conditions: TA102, cotreatment
Excerpt: Salmonella enterica serovar typhimurium (S. typhimurium) strains TA100, TA1535, TA104, and TA102 from the authors' laboratory stock were used as described by Maron and Ames in the antimutagenicity assay.
We carried out the coexposure protocol of the antimutagenicity assay to investigate the potential of the compound to protect against alkylation-mediated genetic mutation in S. typhimurium TA100, TA102, TA104, and TA1535 strains according to Ajith and Soja. The test proceeded both in the absence and presence of a metabolic activation system (4% S9 mix, Aroclor preinduced, from MOLTOX Inc., USA). DMSO 1% served as the negative control. […] The mixtures were incubated in a shaker at 37°C (preincubation) under light protection. After a total of 60 min of cotreatment, the mixtures were added to and mixed with 2 mL top agar containing 0.05 mmol/L L-histidine and D-biotin for the S. typhimurium strains. Each of these was then spread on a minimal glucose agar (1.5% agar, Vogel-Bonner medium E, containing 2% glucose) plate. After the top agar solidified, the plates were incubated at 37°C for 60–72 h. Each tester strain was assayed in triplicate and repeated at least twice, and the number of revertant colonies was counted for each tester strain and treatment group. The counts of revertant colonies were obtained to build a dose-response curve and calculate the percentage of reduction.

[3] = TA100, cotreatment, +S9, CPA (150 μM), atorvastatin 20 μM
[4] = TA100, cotreatment, +S9, CPA (150 μM), atorvastatin 100 μM
[5] = TA100, cotreatment, +S9, CPA (150 μM), atorvastatin 200 μM
[6] = TA100, cotreatment, +S9, CPA (150 μM), atorvastatin 1000 μM
[7] = TA100, cotreatment, −S9, MMS (100 μM), atorvastatin 20 μM
[8] = TA100, cotreatment, −S9, MMS (100 μM), atorvastatin 100 μM
[9] = TA100, cotreatment, −S9, MMS (100 μM), atorvastatin 200 μM
[10] = TA100, cotreatment, −S9, MMS (100 μM), atorvastatin 1000 μM
[11] = TA100, posttreatment, +S9, CPA (150 μM), atorvastatin 20 μM
[12] = TA100, posttreatment, +S9, CPA (150 μM), atorvastatin 200 μM
[13] = TA100, posttreatment, +S9, CPA (150 μM), atorvastatin 1000 μM
[14] = TA100, posttreatment, −S9, MMS (100 μM), atorvastatin 20 μM
[15] = TA100, posttreatment, −S9, MMS (100 μM), atorvastatin 100 μM
[16] = TA100, posttreatment, −S9, MMS (100 μM), atorvastatin 200 μM
[17] = TA100, posttreatment, −S9, MMS (100 μM), atorvastatin 1000 μM
[18] = TA100, pretreatment, +S9, CPA (150 μM), atorvastatin 20 μM
[19] = TA100, pretreatment, +S9, CPA (150 μM), atorvastatin 100 μM
[20] = TA100, pretreatment, +S9, CPA (150 μM), atorvastatin 200 μM
[21] = TA100, pretreatment, +S9, CPA (150 μM), atorvastatin 1000 μM
[22] = TA100, pretreatment, −S9, MMS (100 μM), atorvastatin 20 μM
[23] = TA100, pretreatment, −S9, MMS (100 μM), atorvastatin 100 μM
[24] = TA100, pretreatment, −S9, MMS (100 μM), atorvastatin 200 μM
[25] = TA100, pretreatment, −S9, MMS (100 μM), atorvastatin 1000 μM
[26] = +S9, CPA (150 μM), atorvastatin 20 μM
[27] = +S9, CPA (150 μM), atorvastatin 100 μM
[28] = +S9, CPA (150 μM), atorvastatin 200 μM
[29] = +S9, CPA (150 μM), atorvastatin 1000 μM
[30] = −S9, MMS (100 μM), atorvastatin 20 μM
[31] = −S9, MMS (100 μM), atorvastatin 100 μM
[32] = −S9, MMS (100 μM), atorvastatin 200 μM
[33] = −S9, MMS (100 μM), atorvastatin 1000 μM

CC(C)c1c(C(=O)Nc2ccccc2)c(-c2ccccc2)c(-c2ccc(F)cc2)n1CC[C@@H](O)C[C@@H](O)CC(=O)O [AVA, atorvastatin]
% reduction [1, 3]: 2.65%
His+ (revertant colonies) [1, 3]: 235 ± 22
% reduction [1, 4]: 6.19%
His+ (revertant colonies) [1, 4]: 230 ± 31
% reduction [1, 5]: 11.50%
His+ (revertant colonies) [1, 5]: 224 ± 15
% reduction [1, 6]: 17.70%
His+ (revertant colonies) [1, 6]: 216 ± 25
% reduction [1, 7]: 7.14%
His+ (revertant colonies) [1, 7]: 204 ± 18
% reduction [1, 8]: 12.5%
His+ (revertant colonies) [1, 8]: 198 ± 22
% reduction [1, 9]: 19.64%
His+ (revertant colonies) [1, 9]: 190 ± 13
% reduction [1, 10]: 23.21%
His+ (revertant colonies) [1, 10]: 186 ± 14
Reduction of DNA injuries caused by MMS or CPA ([1]; TA100, posttreatment): not able to reduce
% reduction [1, 11]: 12.04%
His+ (revertant colonies) [1, 11]: 257 ± 5
% reduction ([1]; TA100, posttreatment, +S9, CPA (150 μM), atorvastatin 100 μM): 17.44%
% reduction [1, 12]: 18.49%
His+ (revertant colonies) [1, 12]: 216 ± 8
% reduction [1, 13]: 21.48%
His+ (revertant colonies) [1, 13]: 207 ± 23
% reduction [1, 14]: 5.69%
His+ (revertant colonies) [1, 14]: 257 ± 26
% reduction [1, 15]: 11.86%
His+ (revertant colonies) [1, 15]: 248 ± 23
% reduction [1, 16]: 20.10%
His+ (revertant colonies) [1, 16]: 237 ± 22
% reduction [1, 17]: 23.00%
His+ (revertant colonies) [1, 17]: 233 ± 26
% reduction [1, 18]: 79.4^∗ %
His+ (revertant colonies) [1, 18]: 130 ± 30
% reduction [1, 19]: 81.6^∗ %
His+ (revertant colonies) [1, 19]: 127 ± 19
% reduction [1, 20]: 92.59^∗ %
His+ (revertant colonies) [1, 20]: 111 ± 9
% reduction [1, 21]: 97.92^∗ %
His+ (revertant colonies) [1, 21]: 103 ± 2
Antimutagenic activity ([1]; TA100, pretreatment, all concentrations, presence and absence of metabolic conditions): exerted antimutagenic activity
% reduction [1, 22]: 45.97^∗ %
His+ (revertant colonies) [1, 22]: 171 ± 14
% reduction [1, 23]: 88.57^∗ %
His+ (revertant colonies) [1, 23]: 117 ± 2
% reduction [1, 24]: 91.43^∗ %
His+ (revertant colonies) [1, 24]: 113 ± 6
% reduction [1, 25]: 98.7^∗ %
His+ (revertant colonies) [1, 25]: 103 ± 4
% reduction [2, 26]: 7.27%
His+ (revertant colonies) [2, 26]: 566 ± 54
% reduction [2, 27]: 9.09%
His+ (revertant colonies) [2, 27]: 560 ± 38
% reduction [2, 28]: 14.55%
His+ (revertant colonies) [2, 28]: 543 ± 42
% reduction [2, 29]: 30%
His+ (revertant colonies) [2, 29]: 496 ± 11
% reduction ([2]; +S9, CPA (150 μM), atorvastatin 1000 μM, listed as Atorvastatin): 30.00^∗ %
% reduction [2, 30]: 16.03%
His+ (revertant colonies) [2, 30]: 525 ± 32
% reduction [2, 31]: 19.08%
His+ (revertant colonies) [2, 31]: 515 ± 64
% reduction [2, 32]: 29%
His+ (revertant colonies) [2, 32]: 483 ± 91
% reduction ([2]; −S9, MMS (100 μM), atorvastatin 200 μM, listed as Atorvastatin): 29.01^∗ %
% reduction [2, 33]: 41.2%
His+ (revertant colonies) [2, 33]: 443 ± 28
% reduction ([2]; −S9, MMS (100 μM), atorvastatin 1000 μM, listed as Atorvastatin): 41.22^∗ %
